Data on 27 compounds can be found in patent publication US8815909B2, “Diaminocyclohexane compounds and uses thereof” (Bristol-Myers Squibb Company, priority 2011, dated 2014).

pEC50: −log10 of the molar value.

The test deals with T1, human Y4 receptor (Homo sapiens, UniProt P50391).
T1 construct: expressed in transfected cells
Kind of test: NPY4 cAMP HTRF Agonist Assay (inhibitory cAMP assay, Gi activation by Y4 agonism). Format: cell-based. To be noted: human Y4 stable CHO clonal cells, forskolin + IBMX; read-out: NPY4 cAMP HTRF Agonist Assay EC50. On the procedure:
NPY4 cAMP HTRF Agonist Assay
The functionality of the compound at Y4 receptor was analyzed using a inhibitory cAMP assay (CISBIO, HTRF cAMP kit #62AM4PEC) to measure the Gi activation by Y4 agonism.
The human Y4 stable CHO clonal cells were maintained in culture medium (F-12 containing 10% Fetal Bovine Serum, […] GENETICIN®, […] Zeocin). Before the experiment, 5 μL of 1 uM Forskolin (Sigma, # F6886) and 100 uM IBMX (Sigma, # I5879) in PBS buffer were added into 384-well plates (PE, Proxi-plate) that were pre-dotted with 100 nL compounds. The cells were removed from the flasks by Cellstripper, counted and adjusted to 1.0×10^6 cells/mL in PBS buffer, and added 5 μL/well (5000 cells/well) into the above 384-well plates. The cells were then covered and incubated for 30 minutes at room temperature. After incubation, 5 μL/well of D2-conjugate in HTRF lysis buffer was first added, followed by adding 5 μL/well of anti-cAMP Cryptate in HTRF lysis buffer. The plates were incubated for another 1 hour at room temperature and read on the EnVision Multilabel Plate Reader.
Compounds described herein were tested in the above assay.
On the technique in general: Time-resolved FRET reads energy transfer from a long-lived donor to a nearby acceptor.

T1 sequence (P50391 whole entry): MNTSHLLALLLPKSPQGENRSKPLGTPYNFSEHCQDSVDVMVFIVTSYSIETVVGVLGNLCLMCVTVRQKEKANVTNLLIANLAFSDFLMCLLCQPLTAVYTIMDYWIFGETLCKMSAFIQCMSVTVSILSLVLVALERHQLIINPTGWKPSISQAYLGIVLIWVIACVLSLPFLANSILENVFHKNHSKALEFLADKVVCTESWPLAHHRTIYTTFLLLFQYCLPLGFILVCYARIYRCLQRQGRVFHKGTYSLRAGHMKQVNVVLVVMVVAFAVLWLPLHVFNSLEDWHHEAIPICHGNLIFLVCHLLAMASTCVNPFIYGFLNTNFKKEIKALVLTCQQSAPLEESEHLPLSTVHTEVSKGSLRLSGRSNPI

Turning to `O=[N+]([O-])c1ccc(N2CCC[C@H](N[C@@H]3CCCC[C@H]3Nc3ncc(-c4ccc(OC(F)(F)F)cc4)o3)C2)cc1` [Example 1, (1R,2R)—N1-((S)-1-(4-Nitrophenyl)piperidin-3-yl)-N2-(5-(4-(trifluoromethoxy)phenyl)oxazol-2-yl)cyclohexane-1,2-diamine], the pEC50 was 8.22.
In the case of `O=[N+]([O-])c1ccc(N2CCC[C@H](N[C@@H]3CCCC[C@H]3Nc3ncc(-c4ccccc4)o3)C2)cc1` [Example 2, (1R,2R)—N1-((S)-1-(4-Nitrophenyl)piperidin-3-yl)-N2-(5-phenyloxazol-2-yl)cyclohexane-1,2-diamine], the pEC50 was 8.52.
As to `O=[N+]([O-])c1ccc(N2CCC[C@H](N[C@@H]3CCCC[C@H]3Nc3nc4ccccc4o3)C2)cc1` [Example 3, (1R,2R)—N1-(Benzo[d]oxazol-2-yl)-N2-((S)-1-(4-nitrophenyl)piperidin-3-yl)cyclohexane-1,2-diamine], the pEC50 was 7.16.
Regarding `O=[N+]([O-])c1ccc(N2CCC[C@H](N[C@@H]3CCCC[C@H]3Nc3nc4cc(OC(F)(F)F)ccc4o3)C2)cc1` [Example 4, (1R,2R)—N1-((S)-1-(4-Nitrophenyl)piperidin-3-yl)-N2-(5-(trifluoromethoxy)benzo[d]oxazol-2-yl)cyclohexane-1,2-diamine], the pEC50 is 6.63.
The figure for `O=[N+]([O-])c1ccc(N2C[C@@H]3C[C@H](N[C@@H]4CCCC[C@H]4Nc4ncc(-c5ccc(OC(F)(F)F)cc5)o4)[C@H]2C3)cc1` [Example 5, (1R,2R)—N1-((1R,4R,6S)-2-(4-Nitrophenyl)-2-azabicyclo[2.2.1]heptan-6-yl)-N2-(5-(4-(trifluoromethoxy)phenyl)oxazol-2-yl)cyclohexane-1,2-diamine] is 8.05; for `O=[N+]([O-])c1ccc(N2C[C@@H]3C[C@H](N[C@@H]4CCCC[C@H]4Nc4ncc(-c5ccccc5)o4)[C@H]2C3)cc1` [Example 6, (1R,2R)—N1-((1R,4R,6S)-2-(4-Nitrophenyl)-2-azabicyclo[2.2.1]heptan-6-yl)-N2-(5-phenyloxazol-2-yl)cyclohexane-1,2-diamine] it is 8.22.
As for `O=[N+]([O-])c1ccc(N2CCC[C@H](N[C@@H]3CCCC[C@H]3Nc3ncc(-c4ccc(C(F)(F)F)cc4)o3)C2)cc1` [Example 7, (1R,2R)—N1-((S)-1-(4-Nitrophenyl)piperidin-3-yl)-N2-(5-(4-(trifluoromethyl)phenyl)oxazol-2-yl)cyclohexane-1,2-diamine], the pEC50 is 6.73.
As to `O=[N+]([O-])c1ccc(N2CCC[C@H](N[C@@H]3CCCC[C@H]3Nc3ncc(-c4ccc(OC(F)(F)F)c(F)c4)o3)C2)cc1` [Example 8, (1R,2R)—N1-(5-(3-Fluoro-4-(trifluoromethoxy)phenyl)oxazol-2-yl)-N2-((S)-1-(4-nitrophenyl)piperidin-3-yl)cyclohexane-1,2-diamine], the pEC50 is 7.80.
Regarding `O=[N+]([O-])c1ccc(N2CCC[C@H](N[C@@H]3CCCC[C@H]3Nc3ncc(-c4ccccc4F)o3)C2)cc1` [Example 9, (1R,2R)—N1-(5-(2-Fluorophenyl)oxazol-2-yl)-N2-((S)-1-(4-nitrophenyl)piperidin-3-yl)cyclohexane-1,2-diamine], the pEC50 is 8.40.
Consider `O=[N+]([O-])c1ccc(N2CCC[C@H](N[C@@H]3CCCC[C@H]3Nc3ncc(-c4ccc(F)c(F)c4)o3)C2)cc1` [Example 10, (1R,2R)—N1-(5-(3,4-Difluorophenyl)oxazol-2-yl)-N2-((S)-1-(4-nitrophenyl)piperidin-3-yl)cyclohexane-1,2-diamine], for which the pEC50 is 7.59.
Take `Cc1cc(OC(F)(F)F)ccc1-c1cnc(N[C@@H]2CCCC[C@H]2N[C@H]2CCCN(c3ccc([N+](=O)[O-])cc3)C2)o1` [Example 11, (1R,2R)—N1-(5-(2-Methyl-4-(trifluoromethoxy)phenyl)oxazol-2-yl)-N2-((S)-1-(4-nitrophenyl)piperidin-3-yl)cyclohexane-1,2-diamine]: the pEC50 was 7.31.
For `O=[N+]([O-])c1ccc(N2CCC[C@H](N[C@@H]3CCCC[C@H]3Nc3ncc(-c4ccc(O)cc4)o3)C2)cc1` [Example 12, 4-(2-((1R,2R)-2-((S)-1-(4-Nitrophenyl)piperidin-3-ylamino)cyclohexylamino)oxazol-5-yl)phenol], the pEC50 was 9.00.
With `O=[N+]([O-])c1ccc(N2CCC[C@H](N[C@@H]3CCCC[C@H]3Nc3ncc(-c4ccc(OC(F)F)cc4)o3)C2)cc1` [Example 13, (1R,2R)—N1-(5-(4-(Difluoromethoxy)phenyl)oxazol-2-yl)-N2-((S)-1-(4-nitrophenyl)piperidin-3-yl)cyclohexane-1,2-diamine], the pEC50 is 8.52.
Take `CC(C)(C)Oc1ccc(-c2cnc(N[C@@H]3CCCC[C@H]3N[C@H]3CCCN(c4ccc([N+](=O)[O-])cc4)C3)o2)cc1` [Example 14, (1R,2R)—N1-(5-(4-tert-Butoxyphenyl)oxazol-2-yl)-N2-((S)-1-(4-nitrophenyl)piperidin-3-yl)cyclohexane-1,2-diamine]: the pEC50 is 6.04.
For the compound `O=[N+]([O-])c1ccc(N2C[C@@H]3C[C@H](N[C@@H]4CCCC[C@H]4Nc4ncc(-c5ccccc5F)o4)[C@H]2C3)cc1` [Example 15, (1R,2R)—N1-(5-(2-Fluorophenyl)oxazol-2-yl)-N2-((1R,4R,6S)-2-(4-nitrophenyl)-2-azabicyclo[2.2.1]heptan-6-yl)cyclohexane-1,2-diamine], the pEC50 is 8.10.
Turning to `O=[N+]([O-])c1ccc(N2C[C@@H]3C[C@H](N[C@@H]4CCCC[C@H]4Nc4ncc(-c5ccc(O)cc5)o4)[C@H]2C3)cc1` [Example 16, 4-(2-((1R,2R)-2-((1R,4R,6S)-2-(4-Nitrophenyl)-2-azabicyclo[2.2.1]heptan-6-ylamino)cyclohexylamino)oxazol-5-yl)phenol], the pEC50 is 8.22.
Consider `O=[N+]([O-])c1ccc(N2CC3CCC2[C@@H](N[C@@H]2CCCC[C@H]2Nc2ncc(-c4ccc(OC(F)(F)F)cc4)o2)C3)cc1` (stereo partly drawn) [Example 17, (1R,2R)—N1-((6S)-2-(4-Nitrophenyl)-2-azabicyclo[2.2.2]octan-6-yl)-N2-(5-(4-(trifluoromethoxy)phenyl)oxazol-2-yl)cyclohexane-1,2-diamine], for which the pEC50 is 6.04.
Turning to `O=[N+]([O-])c1ccc(N2CCC[C@H](N[C@@H]3CCCC[C@H]3Nc3ncc(-c4ccc(F)cc4)o3)C2)cc1` [Example 18, (1R,2R)—N1-(5-(4-Fluorophenyl)oxazol-2-yl)-N2-((S)-1-(4-nitrophenyl)piperidin-3-yl)cyclohexane-1,2-diamine], the pEC50 was 8.15.
With `O=[N+]([O-])c1ccc(N2CCC[C@H](N[C@@H]3CCCC[C@H]3Nc3ncc(-c4cccc(F)c4)o3)C2)cc1` [Example 19, (1R,2R)—N1-(5-(3-Fluorophenyl)oxazol-2-yl)-N2-((S)-1-(4-nitrophenyl)piperidin-3-yl)cyclohexane-1,2-diamine], the pEC50 is 7.64.
As for `O=[N+]([O-])c1ccc(N2CCC[C@H](N[C@@H]3CCCC[C@H]3Nc3ncc(-c4ccc(F)cc4F)o3)C2)cc1` [Example 20, (1R,2R)—N1-(5-(2,4-Difluorophenyl)oxazol-2-yl)-N2-((S)-1-(4-nitrophenyl)piperidin-3-yl)cyclohexane-1,2-diamine], the pEC50 was 8.00.
The figure for `COc1ccc(-c2cnc(N[C@@H]3CCCC[C@H]3N[C@H]3CCCN(c4ccc([N+](=O)[O-])cc4)C3)o2)c(F)c1` [Example 21, (1R,2R)—N1-(5-(2-fluoro-4-methoxyphenyl)oxazol-2-yl)-N2-((S)-1-(4-nitrophenyl)piperidin-3-yl)cyclohexane-1,2-diamine] is 7.96; for `O=[N+]([O-])c1ccc(N2CCC[C@H](N[C@@H]3CCCC[C@H]3Nc3ncc(-c4cccc(OC(F)(F)F)c4)o3)C2)cc1` [Example 22, (1R,2R)—N1-((S)-1-(4-Nitrophenyl)piperidin-3-yl)-N2-(5-(3-(trifluoromethoxy)phenyl)oxazol-2-yl)cyclohexane-1,2-diamine] it is 7.37.
As for `O=[N+]([O-])c1ccc(N2CCC[C@H](N[C@@H]3CCCC[C@H]3Nc3cc(-c4cccc(OC(F)(F)F)c4)ccn3)C2)cc1` [Example 23, (1R,2R)—N1-((S)-1-(4-Nitrophenyl)piperidin-3-yl)-N2-(4-(3-(trifluoromethoxy)phenyl)pyridin-2-yl)cyclohexane-1,2-diamine], the pEC50 was 7.15.
On to `O=[N+]([O-])c1ccc(N2CCC[C@H](N[C@@H]3CCCC[C@H]3Nc3cc(-c4ccc(OC(F)(F)F)cc4)ccn3)C2)cc1` [Example 24, (1R,2R)—N1-((S)-1-(4-Nitrophenyl)piperidin-3-yl)-N2-(4-(4-(trifluoromethoxy)phenyl)pyridin-2-yl)cyclohexane-1,2-diamine], for which the pEC50 was 7.16.
The figure for `O=[N+]([O-])c1ccc(N2CCC[C@H](N[C@@H]3CCCC[C@H]3Nc3cc(-c4ccccc4)ccn3)C2)cc1` [Example 25, (1R,2R)—N1-((S)-1-(4-Nitrophenyl)piperidin-3-yl)-N2-(4-phenylpyridin-2-yl)cyclohexane-1,2-diamine] is 7.85; for `O=[N+]([O-])c1ccc(N2CCC[C@H](N[C@@H]3CCCC[C@H]3Nc3ncc(-c4ccccc4)s3)C2)cc1` [Example 26] it is 8.10.
For `O=[N+]([O-])c1ccc(N2CCC[C@H](N[C@@H]3CCCC[C@H]3Nc3nnc(-c4ccccc4)o3)C2)cc1` [Example 27, (1R,2R)—N1-((S)-1-(4-Nitrophenyl)piperidin-3-yl)-N2-(5-phenyl-1,3,4-oxadiazol-2-yl)cyclohexane-1,2-diamine], the pEC50 was 7.22.

In general, pEC50 refers to the negative decadic logarithm of the EC50, by convention in mol/L.
